Reference: US12410152B2, “Oxazole and thioazole-type cullin ring ubiquitin ligase compounds and uses thereof” (Proxygen GmbH, priority 2019, dated 2025)
One block for each compound: values may come before it.

How the values were obtained:
UBE2M mutant KBM7 cells = assay: cells; type: cell-based; conditions: for EC50: Homo sapiens, KBM-7, read-out: KBM7_UBE2M_mut
Method: (§1) KBM7 cells with the specified genetic backgrounds were grown in IMDM supplemented with 10% FBS and 1% penicillin/streptomycin (pen/strep). AsPC1, HCT116, NCI-H446 and 293T cells were grown in DMEM 10% FBS and 1% pen/strep. MV4; 11, Jurkat and Be (2) C cells were grown in RPMI 10% FBS 1% pen/strep. KBM7, AsPC1 and HCT116 cells expressing Cas9 were generated using the plasmid Lenti_Cas9_Blasti (Addgene #52962). The lentiviral plasmid lentiGuide-Puro (Addgene #52963) was used to express sgRNAs against the genes UBE2M (in KBM7-Cas9, AsPC1-Cas9 and HCT116-Cas9 cells), UBE2G1 (in KBM7-Cas9 cells) and […] (in KBM7-Cas9 cells). The lentiviral plasmid lentiGuide-Puro-IRES-mCherry (modified from Addgene #52963) was used to express sgRNAs against CUL4A (in KBM7-Cas9 cells). The lentiviral plasmid pLenti-PGK-Hygro-DEST-UBE2M was generated by Gateway cloning (empty destination vector Addgene #19066), and used to generate UBE2M^resc KBM7 cells. […]
(§2) Following this observation, it was rationalized that novel small molecule degraders can be identified in an unbiased manner, simply by searching for compounds that lose activity in the absence of UBE2M. 2000 small molecules, mostly of unknown function/target, were tested for their antiproliferative effects in human leukemia cells (KBM7). These cells were either transduced with a control sgRNA (KBM7WT), or with an sgRNA targeting UBE2M, leading to a hypomorph (deletion of six amino acids) with a functional impairment (UBE2Mmut).
(§3) Finally, a total of structurally similar analogs was tested to unravel structure-activity relationship of the identified molecules. To that end, their anti-cancer activity was assayed in WT cells, as well as KBM7 cells deficient in genes identified in the genome-wide CRISPR screens (UBE2M, CUL4B, UBE2G1). Moreover, the compounds were also tested in AsPC1 pancreatic cancer cells (WT or UBE2Mmut), MV4; 11 and Jurkat leukemia cells, Be (2) C neuroblastoma cells, and NCI-H446 lung cancer cells (Table 3 at the end of this document)
(§4) KBM7^WT, mutant KBM7 clones (UBE2M^mut, UBE2M^resc, UBE2G1^mut CUL4A^mut, CUL4B^mut), and 3-day doxycycline pretreated KBM7^iCas9_sgDDB1 cells were seeded at a cell density of 50,000 cells/mL in 96-well plates with DMSO or drug, in triplicates. Drugs used: IC020772.1/IC020772.1X, IC021313.2/IC021313.2X, T6938051/T6938051X or THZ531. Cells were treated for 3 days, after which cell viability was assessed according to manufacturer's protocol (CellTiter Glo, Promega G7570). Survival curves and EC50 values were calculated by best-fit analysis of the log 10 drug concentration to fold change of drug-treated cells over DMSO-treated cells. All survival assays included technical triplicates per sample, per experiment.

KBM7 WT cells = assay: cells; type: cell-based; conditions: for effect on KBM7 cells in dose-ranging viability assays: WT KBM7, 3-day treatment; for EC50: Homo sapiens, KBM-7, read-out: KBM7_WT
Method: as §1, §3, §4

[1] = system: T1, cyclin K (CCNK) (Homo sapiens); assay: CCNK destabilization/degradation (expression proteomics and Western blot); type: cell-based; conditions: wild-type KBM7 cells
T1 construct: endogenous in cells; host or cells: KBM7 cells (WT and UBE2M/CUL4B/UBE2G1 mutant clones)
Method: (§5) The hypomorphic phenotype of the mutated UBE2M allele in KBM7 cells (KBM7 UBE2M^mut cells) was assessed. In this regard, CRISPR/Cas9-induced mutation of UBE2M inactivated CRL activity including CRL4^CRBN and CRL2^VHL. […] Additionally, CCNK destabilization by all three compounds was validated via time-resolved immunoblots wherein CCNK degradation was evident after two hours (FIG. 19c).
(§6) Subsequently, a total of 53 structurally related analogue compounds in dose-ranging viability assays in KBM7 wildtype- and UBE2M^mut cells was tested to develop a structure-activity relationship for the assayed compounds. This informed on sites amenable for derivatization of analogs (FIG. 20a), and also to the identification of structurally similar small molecules with no measurable activity that are thus suited negative controls. […] CRL activity-dependent degradation of CCNK could be rescued by pharmacologic NAE inhibition and by blocking the ubiquitin activating enzyme UBA1, particularly by pretreating the cells with 1 μM carfilzomib (Selleckchem, S2853), 1 μM MLN4924 (Selleckchem, S7109), 10 μM TAK-243 (MedChemExpress, HY-100487) or 1 μM THZ531 (MedChemExpress HY-103618) (FIG. 19d). Furthermore, treatment with the selective covalent CDK12/13 inhibitor THZ531, which binds to the ATP binding pocket of CDK12/13, rescued CCNK degradation (FIG. 19d) indicating the role of the active site of CDK12/13 for CRL activity-dependent CCNK degradation by the identified compounds (FIG. 19d).
(§7) PBS-washed cell pellets were lysed in 50 mM Tris pH 7.9, 8M Urea and 1% CHAPS and incubated with shaking at 4° C. for at least 30 min. 20 μg of supernatants were run and transferred for detection. Antibodies used: CUL1 (Santa Cruz Biotechnology, sc-1276), CUL2 (Sigma-Aldrich, SAB2501565-100), CUL3 (Cell Signaling Technology, 2759), CUL4A (Cell Signaling Technology, 2699S), CUL4B (Proteintech, 12916-1-AP), CUL5 (Santa Cruz Biotechnology, sc-373822), UBE2M (Santa Cruz Biotechnology, sc-390064), DDB1 (Cell Signaling Technology, 5428S), CCNK (Bethyl, A301-939A), CDK12 (Cell Signaling Technology, 11973S), CDK13 (Bethyl, A301-458A), RBM39 (1:500, Santa Cruz Biotechnology sc-376531), V5 (Cell Signaling Technology, 13202), Ubiquityl-Histone H2A (K119) (Cell Signaling, 8240-20). ACTIN (Sigma-Aldrich, A5441), VINCUL1N (Santa Cruz Biotechnology, sc-25336). Secondary antibodies anti-mouse/rabbit/goat (Jackson ImmunoResearch 115-035-003, 111-035-003 and 705-035-003).
(§8) Comparison of overall proteome-wide changes in KBM7 cells treated with IC020772.1 (2.5 μM), IC021313.2 (7 μM) or T6938051 (3.5 μM) for 5 h and 12h, using quantitative proteomics based on isobaric tagging.

KBM7 CUL4Bmut cells = assay: cells; type: cell-based; conditions: Homo sapiens, KBM-7, read-out: KBM7_CUL4B_mut
Method: as §1, §3, §4

KBM7 UBE2G1mut cells = assay: cells; type: cell-based; conditions: Homo sapiens, KBM-7, read-out: KBM7_UBE2G1_mut
Method: as §1, §3, §4

[2] = system: KBM7 WT and UBE2Mmut cells; assay: Primary phenotypic screen, differential viability KBM7 WT vs UBE2M mutant; type: cell-based, human; conditions: 10 μM and 500 nM, 3 days
Method: as §2
KBM7^WT and UBE2M^mut cells were treated with a compound library (2000 cytotoxic diverse small-molecules, mostly of unknown function/target). Briefly, the screening was divided in three parts 1) primary screening, 2) follow up and 3) validation. During the primary screening, cells were treated with 10 μM and 500 nM of every compound. […] After 3 days of treatment, cell viability was measured (CellTiter Glo, Promega). The screen was perform in 384-well plates (Corning 3712) and the reagent/compound dispensing system used was: Echo 520 Liquid Handler, Multidrop™ Combi Reagent Dispenser. Control compounds were included in several wells, in all the plates. Method for validation of IC021313.2, IC020822.1, IC020772.1, T6938051 as described above in (i).

cyclin K (CCNK) = biological target: T2, cyclin K (CCNK) (Homo sapiens, UniProt Q16531+Q9NYV4); assay: CCNK destabilization/degradation (expression proteomics and Western blot); type: cell-based; conditions: for rescue of drug-induced CCNK degradation by pretreatment: 30 min pretreatment before IC020772.1 (2.5 μM, 5h), 1 μM carfilzomib, 1 μM MLN4924, 10 μM TAK-243, 1 μM THZ531
T2 construct: endogenous in cells; host or cells: KBM7 cells (WT and UBE2M/CUL4B/UBE2G1 mutant clones)
Method: as §5, §6, §7, §8

DCAF15 = biological target: T3, DCAF15 (Homo sapiens, UniProt Q66K64); assay: DCAF15 stabilization, live-cell HiBit/LgBit bioluminescence screen; type: cell-based; conditions: 10 μM, 293T cells expressing HiBit-DCAF15
T3 construct: expressed in transfected cells; host or cells: 293T cells, DCAF15 knocked out, additionally transduced with LgBit
From the text: Subsequently, in this context, the E3 ligase substrate receptor (SR) stabilization approach was employed in order to identify novel chemical matter that can bind and chemically re-program the substrate receptor DCAF15. To be able to screen a collection of around 8000 small-molecules, a cellular system was developed that enabled monitoring of DCAF15 levels in live cells in multi-well format. To that end, DCAF15 was first knocked out in 293T cells via CRISPR/Cas9 technology. Then, DCAF15 was stably expressed as a HiBit® fusion protein in these cells. After further transducing these cells with LgBit, this allowed live-cell tracing of DCAF15 levels in 384 well format by measuring bioluminescence (FIG. 13).
In brief, cells were seeded at a concentration of 250′000 cells/ml in DMEM+10% FCS+25 mM Hepes. The luciferase substrate Endurazine was added at concentrations recommended by the manufacturer. Small-molecules were added at a concentration of 10 μM, and their effect on DCAF15 levels was assayed by continuous bioluminescent imaging (measurements were taken every 120 minutes). In total, 8000 compounds were tested.
The known DCAF15 molecular glue indisulam was used as a positive control. In brief, indisulam is known to act as a DCAF15-dependent molecular glue that binds DCAF15 and induced proximity between DCAF15 and RBM39, leading to the degradation of the latter. […]

T2 sequence (O75909 whole entry partner): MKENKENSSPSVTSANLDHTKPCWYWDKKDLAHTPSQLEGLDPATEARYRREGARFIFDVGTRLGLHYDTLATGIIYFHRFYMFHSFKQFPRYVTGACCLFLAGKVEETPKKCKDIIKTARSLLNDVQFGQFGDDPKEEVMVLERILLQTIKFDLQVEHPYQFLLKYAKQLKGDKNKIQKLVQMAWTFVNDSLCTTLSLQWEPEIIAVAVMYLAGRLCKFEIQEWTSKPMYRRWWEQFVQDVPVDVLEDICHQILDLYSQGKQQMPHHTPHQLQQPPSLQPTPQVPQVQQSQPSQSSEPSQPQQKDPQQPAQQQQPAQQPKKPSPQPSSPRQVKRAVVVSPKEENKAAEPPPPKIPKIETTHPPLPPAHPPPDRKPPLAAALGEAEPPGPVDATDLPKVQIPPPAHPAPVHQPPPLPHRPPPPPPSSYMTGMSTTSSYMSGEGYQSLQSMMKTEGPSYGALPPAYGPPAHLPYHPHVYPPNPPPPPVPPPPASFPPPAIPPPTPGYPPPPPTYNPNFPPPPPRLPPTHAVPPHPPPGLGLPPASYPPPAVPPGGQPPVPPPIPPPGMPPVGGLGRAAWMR
T2 sequence (Q9NYV4 whole entry): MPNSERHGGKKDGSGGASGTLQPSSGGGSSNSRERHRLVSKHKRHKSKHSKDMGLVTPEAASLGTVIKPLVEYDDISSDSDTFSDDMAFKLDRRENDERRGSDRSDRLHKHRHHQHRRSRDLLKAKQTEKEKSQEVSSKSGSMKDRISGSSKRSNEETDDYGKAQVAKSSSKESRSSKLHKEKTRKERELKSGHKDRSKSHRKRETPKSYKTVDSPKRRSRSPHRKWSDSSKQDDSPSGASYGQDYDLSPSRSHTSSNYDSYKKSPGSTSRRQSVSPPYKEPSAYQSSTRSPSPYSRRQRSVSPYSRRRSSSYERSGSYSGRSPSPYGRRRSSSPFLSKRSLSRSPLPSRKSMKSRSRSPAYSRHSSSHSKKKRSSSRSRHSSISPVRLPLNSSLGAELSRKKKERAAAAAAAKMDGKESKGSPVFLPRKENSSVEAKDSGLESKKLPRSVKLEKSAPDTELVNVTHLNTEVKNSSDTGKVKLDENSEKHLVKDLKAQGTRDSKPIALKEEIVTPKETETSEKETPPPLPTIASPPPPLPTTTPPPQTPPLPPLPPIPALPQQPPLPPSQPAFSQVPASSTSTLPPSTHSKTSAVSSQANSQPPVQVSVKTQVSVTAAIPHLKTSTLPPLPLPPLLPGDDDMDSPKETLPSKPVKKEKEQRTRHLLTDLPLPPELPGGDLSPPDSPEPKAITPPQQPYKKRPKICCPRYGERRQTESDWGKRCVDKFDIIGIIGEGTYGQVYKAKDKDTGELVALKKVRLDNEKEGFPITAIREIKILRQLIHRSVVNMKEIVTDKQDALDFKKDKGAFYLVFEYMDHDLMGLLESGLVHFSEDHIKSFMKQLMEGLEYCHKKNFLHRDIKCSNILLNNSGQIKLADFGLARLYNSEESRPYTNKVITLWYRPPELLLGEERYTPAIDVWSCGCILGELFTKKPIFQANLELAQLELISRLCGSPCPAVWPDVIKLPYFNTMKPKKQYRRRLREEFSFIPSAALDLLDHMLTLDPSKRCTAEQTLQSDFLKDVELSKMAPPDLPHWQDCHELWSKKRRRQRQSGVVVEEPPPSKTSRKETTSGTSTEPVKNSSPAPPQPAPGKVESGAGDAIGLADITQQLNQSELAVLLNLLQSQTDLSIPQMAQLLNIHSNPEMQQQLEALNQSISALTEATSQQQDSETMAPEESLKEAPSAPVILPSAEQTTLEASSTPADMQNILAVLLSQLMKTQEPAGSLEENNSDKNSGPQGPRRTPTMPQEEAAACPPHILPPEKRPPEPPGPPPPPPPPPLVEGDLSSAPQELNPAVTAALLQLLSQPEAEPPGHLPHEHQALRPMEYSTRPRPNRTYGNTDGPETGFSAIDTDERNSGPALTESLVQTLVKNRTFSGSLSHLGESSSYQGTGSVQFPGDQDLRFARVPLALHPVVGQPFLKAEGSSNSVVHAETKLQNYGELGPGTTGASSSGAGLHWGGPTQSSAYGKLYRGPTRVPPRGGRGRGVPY
T2 sequence (Q16531 2-1140 limits assumed): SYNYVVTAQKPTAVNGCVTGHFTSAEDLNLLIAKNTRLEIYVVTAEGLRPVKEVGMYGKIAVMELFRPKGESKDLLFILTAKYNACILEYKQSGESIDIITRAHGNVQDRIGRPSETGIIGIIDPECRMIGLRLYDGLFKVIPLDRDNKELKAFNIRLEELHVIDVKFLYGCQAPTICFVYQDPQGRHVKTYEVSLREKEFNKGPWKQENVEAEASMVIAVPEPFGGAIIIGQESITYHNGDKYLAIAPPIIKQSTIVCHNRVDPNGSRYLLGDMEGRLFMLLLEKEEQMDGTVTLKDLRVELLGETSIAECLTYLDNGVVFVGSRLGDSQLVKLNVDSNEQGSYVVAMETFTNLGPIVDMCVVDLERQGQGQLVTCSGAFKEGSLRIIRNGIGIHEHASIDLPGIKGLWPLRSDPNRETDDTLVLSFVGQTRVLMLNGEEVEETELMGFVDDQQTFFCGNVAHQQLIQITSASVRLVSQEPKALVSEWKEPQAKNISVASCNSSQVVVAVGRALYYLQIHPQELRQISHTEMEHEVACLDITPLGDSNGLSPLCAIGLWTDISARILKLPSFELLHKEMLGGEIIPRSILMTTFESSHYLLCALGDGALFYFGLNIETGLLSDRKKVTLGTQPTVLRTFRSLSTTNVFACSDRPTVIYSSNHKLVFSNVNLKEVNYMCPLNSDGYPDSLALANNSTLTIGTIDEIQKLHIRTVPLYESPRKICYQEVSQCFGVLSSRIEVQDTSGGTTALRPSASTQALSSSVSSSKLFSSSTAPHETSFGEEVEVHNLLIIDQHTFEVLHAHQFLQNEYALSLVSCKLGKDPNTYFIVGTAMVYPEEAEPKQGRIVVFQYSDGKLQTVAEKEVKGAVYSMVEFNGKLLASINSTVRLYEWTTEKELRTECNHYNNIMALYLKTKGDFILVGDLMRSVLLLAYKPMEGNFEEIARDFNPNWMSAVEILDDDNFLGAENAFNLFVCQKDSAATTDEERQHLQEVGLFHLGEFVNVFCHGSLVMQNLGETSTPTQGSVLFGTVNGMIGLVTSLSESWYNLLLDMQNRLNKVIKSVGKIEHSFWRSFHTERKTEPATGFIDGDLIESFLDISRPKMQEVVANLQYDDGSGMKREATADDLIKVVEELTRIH
T2 sequence (Q13620 whole entry partner): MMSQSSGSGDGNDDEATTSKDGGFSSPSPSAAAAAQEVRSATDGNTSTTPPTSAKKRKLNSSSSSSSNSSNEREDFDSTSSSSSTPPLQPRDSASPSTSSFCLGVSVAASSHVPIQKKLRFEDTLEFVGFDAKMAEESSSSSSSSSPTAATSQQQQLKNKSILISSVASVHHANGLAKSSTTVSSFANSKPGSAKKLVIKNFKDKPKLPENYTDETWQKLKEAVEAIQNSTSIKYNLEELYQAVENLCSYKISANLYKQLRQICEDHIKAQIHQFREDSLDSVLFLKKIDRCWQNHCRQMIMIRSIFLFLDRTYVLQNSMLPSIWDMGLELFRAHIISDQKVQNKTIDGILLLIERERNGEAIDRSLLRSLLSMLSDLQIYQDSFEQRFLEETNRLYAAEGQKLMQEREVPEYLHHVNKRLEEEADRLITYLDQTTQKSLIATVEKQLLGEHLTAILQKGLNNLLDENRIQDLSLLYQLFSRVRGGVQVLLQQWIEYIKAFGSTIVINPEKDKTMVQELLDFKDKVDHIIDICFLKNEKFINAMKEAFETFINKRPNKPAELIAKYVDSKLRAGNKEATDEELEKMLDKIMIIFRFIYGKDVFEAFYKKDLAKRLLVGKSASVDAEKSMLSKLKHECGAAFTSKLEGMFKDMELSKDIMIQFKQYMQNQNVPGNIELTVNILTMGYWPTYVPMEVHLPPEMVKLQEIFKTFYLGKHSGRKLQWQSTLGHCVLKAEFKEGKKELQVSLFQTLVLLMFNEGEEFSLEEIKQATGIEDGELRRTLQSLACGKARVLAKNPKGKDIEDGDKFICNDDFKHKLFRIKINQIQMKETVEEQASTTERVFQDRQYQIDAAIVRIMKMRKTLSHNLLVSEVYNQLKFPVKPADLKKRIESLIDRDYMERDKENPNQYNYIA
T2 sequence (P62877 whole entry partner): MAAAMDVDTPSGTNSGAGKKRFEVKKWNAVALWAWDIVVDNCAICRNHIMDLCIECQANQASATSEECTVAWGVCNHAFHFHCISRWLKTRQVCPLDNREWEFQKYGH
T1 sequence (O75909 whole entry partner): as the sequence (O75909 whole entry partner) above
T1 sequence (Q9NYV4 whole entry, further chain): as the sequence (Q9NYV4 whole entry) above
T1 sequence (Q16531 2-1140 limits assumed, further chain): as the sequence (Q16531 2-1140 limits assumed) above
T1 sequence (Q13620 whole entry partner): as the sequence (Q13620 whole entry partner) above
T1 sequence (P62877 whole entry partner): as the sequence (P62877 whole entry partner) above
T3 sequence (Q66K64 whole entry): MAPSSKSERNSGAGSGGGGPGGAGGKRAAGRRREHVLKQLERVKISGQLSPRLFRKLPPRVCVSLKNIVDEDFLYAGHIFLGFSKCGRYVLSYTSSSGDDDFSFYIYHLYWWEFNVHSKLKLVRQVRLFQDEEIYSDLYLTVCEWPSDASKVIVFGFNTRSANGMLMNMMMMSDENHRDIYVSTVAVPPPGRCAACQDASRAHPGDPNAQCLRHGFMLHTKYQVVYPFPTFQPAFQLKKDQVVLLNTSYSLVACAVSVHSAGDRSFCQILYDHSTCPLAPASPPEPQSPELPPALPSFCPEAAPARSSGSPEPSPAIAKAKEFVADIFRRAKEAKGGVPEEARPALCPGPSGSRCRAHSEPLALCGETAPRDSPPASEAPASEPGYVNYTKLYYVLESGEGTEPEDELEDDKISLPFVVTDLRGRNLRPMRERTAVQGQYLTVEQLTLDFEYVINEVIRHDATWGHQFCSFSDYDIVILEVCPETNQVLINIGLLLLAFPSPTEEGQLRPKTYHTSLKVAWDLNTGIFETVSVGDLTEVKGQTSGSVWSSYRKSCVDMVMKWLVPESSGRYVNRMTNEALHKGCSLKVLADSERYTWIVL

SMILES: Cc1ncsc1-c1ccc([C@H](C)NC(=O)[C@@H]2C[C@@H](O)CN2C(=O)[C@@H](NC(=O)COCCCOCCNC(=O)C[C@@H]2N=C(c3ccc(Cl)cc3)c3c(sc(C)c3C)-n3c(C)nnc32)C(C)(C)C)cc1 [ARV-771, reference compound]
anti-proliferative effect upon mutation of UBE2M (UBE2M mutant KBM7 cells; KBM7 UBE2M mutant vs WT): efficacy is significantly abrogated

SMILES: Cc1ccc(NC(=O)C2CSCN2C(=O)c2ccc(C)o2)cc1 (stereo not shown) [Compound T6938051X]
effect on KBM7 cells in dose-ranging viability assays (KBM7 WT cells): did not affect KBM7 cells | CCNK destabilization [1]: failed to induce pronounced CCNK destabilization

SMILES: O=C(CSc1nc2ccccc2[nH]1)Nc1ccc(Cl)cn1 [Compound Z54609541, 2-((1H-benzo[d]imidazol-2-yl)thio)-N-(5-chloropyridin-2-yl) acetamide]
EC50 (KBM7 CUL4Bmut cells): 11.9 µM | EC50 (KBM7 UBE2G1mut cells): 7.6 µM | EC50 (KBM7 WT cells): 2.41 µM | EC50 (UBE2M mutant KBM7 cells): 24.4 µM

SMILES: O=C(CSc1nc2ccccc2[nH]1)Nc1ccc(Br)cn1 [Compound Z201181756, 2-((1H-benzo[d]imidazol-2-yl)thio)-N-(5-bromopyridin-2-yl) acetamide]
EC50 (KBM7 CUL4Bmut cells): 12.6 µM | EC50 (KBM7 UBE2G1mut cells): 6.17 µM | EC50 (KBM7 WT cells): 1.41 µM | EC50 (UBE2M mutant KBM7 cells): 34.7 µM

SMILES: CCCn1c2ccccc2c2nnc(SCC(=O)Nc3ccc(Cl)cn3)nc21 [IC020772.1X]
effect on KBM7 cells in dose-ranging viability assays (KBM7 WT cells): did not affect KBM7 cells | CCNK destabilization [1]: failed to induce pronounced CCNK destabilization

SMILES: O=C(CSc1nc2ccccc2[nH]1)Nc1ccc(Br)cn1 [IC020822.1]
hit in differential viability screen [2]: stood out in terms of fold-change significance

SMILES: O=C(CSc1nc2ccccc2[nH]1)Nc1ccccn1 [IC021313.2X]
effect on KBM7 cells in dose-ranging viability assays (KBM7 WT cells): did not affect KBM7 cells | CCNK destabilization [1]: failed to induce pronounced CCNK destabilization

rescue of drug-induced CCNK degradation by pretreatment (cyclin K (CCNK)): rescued
SMILES: NS(=O)(=O)OC[C@@H]1C[C@@H](n2ccc3c(N[C@H]4CCc5ccccc54)ncnc32)C[C@@H]1O [MLN4924, reference compound]

rescue of drug-induced CCNK degradation by pretreatment (cyclin K (CCNK)): rescued
SMILES: NS(=O)(=O)OC[C@H]1C[C@@H](Nc2ccnc3cc(-c4cccc(SC(F)(F)F)c4)nn23)[C@H](O)[C@@H]1O [TAK-243, reference compound]

rescue of drug-induced CCNK degradation by pretreatment (cyclin K (CCNK)): rescued | effect on CCNK upon inactivation of DDB1, UBE2G1 and UBE2M (cyclin K (CCNK); CRISPR-inactivated KBM7 cells): not affected
SMILES: CN(C)C/C=C/C(=O)Nc1ccc(C(=O)N2CCC[C@@H](Nc3ncc(Cl)c(-c4c[nH]c5ccccc45)n3)C2)cc1 [THZ531, reference compound]

rescue of drug-induced CCNK degradation by pretreatment (cyclin K (CCNK)): rescued
SMILES: CC(C)C[C@H](NC(=O)[C@H](CCc1ccccc1)NC(=O)CN1CCOCC1)C(=O)N[C@@H](Cc1ccccc1)C(=O)N[C@@H](CC(C)C)C(=O)[C@@]1(C)CO1 [carfilzomib, reference compound]

DCAF15 stabilization (relative luciferase signal over time) (DCAF15): pronounced stabilization of DCAF15
SMILES: NS(=O)(=O)c1ccc(S(=O)(=O)Nc2cccc3c(Cl)c[nH]c23)cc1 [indisulam, reference compound]
